According to PubChem BioAssay (NCI):
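Step 1: Grow cells in 96-well plates. Step 2: Expose to compound for 48 hours at 5 concentrations. Step 3: Interpolate endpoints linearly; if unreached, use highest concentration. TGI is the concentration that stops growth completely.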

Assays:
Test in all cases: NCI tumour cell line growth inhibition, 48 h
MOLT-4 leukemia = system: MOLT-4 leukemia
MCF7 breast = system: MCF7 breast
BT-549 breast = system: BT-549 breast
DU-145 prostate = system: DU-145 prostate
SK-MEL-2 melanoma = system: SK-MEL-2 melanoma
SK-MEL-5 melanoma = system: SK-MEL-5 melanoma
OVCAR-4 ovarian = system: OVCAR-4 ovarian
COLO 205 colon = system: COLO 205 colon
K-562 leukemia = system: K-562 leukemia
SN12C renal = system: SN12C renal
OVCAR-3 ovarian = system: OVCAR-3 ovarian
CAKI-1 renal = system: CAKI-1 renal
OVCAR-8 ovarian = system: OVCAR-8 ovarian
NCI-H23 lung = system: NCI-H23 lung
NCI/ADR-RES ovarian = system: NCI/ADR-RES ovarian
TK-10 renal = system: TK-10 renal
NCI-H226 lung = system: NCI-H226 lung
M14 melanoma = system: M14 melanoma
CCRF-CEM leukemia = system: CCRF-CEM leukemia

| SMILES | TGI (MOLT-4 leukemia) | TGI (MCF7 breast) | TGI (BT-549 breast) | TGI (DU-145 prostate) | TGI (SK-MEL-2 melanoma) | TGI (SK-MEL-5 melanoma) | TGI (OVCAR-4 ovarian) | TGI (COLO 205 colon) | TGI (K-562 leukemia) | TGI (SN12C renal) | TGI (OVCAR-3 ovarian) | TGI (CAKI-1 renal) | TGI (OVCAR-8 ovarian) | TGI (NCI-H23 lung) | TGI (NCI/ADR-RES ovarian) | TGI (TK-10 renal) | TGI (NCI-H226 lung) | TGI (M14 melanoma) | TGI (CCRF-CEM leukemia) |
| --- | --- | --- | --- | --- | --- | --- | --- | --- | --- | --- | --- | --- | --- | --- | --- | --- | --- | --- | --- |
| N#Cc1nc(C(CO)N(Cc2ccccc2)C(=O)O)oc1N (stereo not drawn) | > 100 µM | > 100 µM | > 100 µM | > 100 µM | > 100 µM | > 100 µM | > 100 µM | > 100 µM | > 100 µM | > 100 µM | > 100 µM | > 100 µM | > 100 µM | > 100 µM | > 100 µM | > 100 µM | > 100 µM | > 100 µM | – |
| C[C@]12CC[C@H](O)CC1=CC[C@@H]1[C@@H]2CC[C@]2(C)C(=N/O)/C(=C/c3ccc([N+](=O)[O-])cc3)C[C@@H]12 | 20.5 µM | 18.2 µM | 26.3 µM | 21.6 µM | 15.5 µM | 3.32 µM | > 100 µM | 15.7 µM | 59.9 µM | 7.14 µM | 5.06 µM | 32.9 µM | 9.75 µM | 25.6 µM | 25.9 µM | – | 6.59 µM | 21.1 µM | > 100 µM |
| CC(=O)O[C@H]1C(=O)[C@@]2(C)[C@H]([C@H](OC(=O)c3ccccc3)[C@]3(O)C[C@H](OC(=O)[C@H](O)[C@@H](NC(=O)C(C)(C)C)c4ccccc4)C(C)=C1C3(C)C)[C@]1(OC(C)=O)CO[C@@H]1C[C@@H]2O | > 8.96 µM | > 10 µM | > 10 µM | 0.839 µM | > 3.28 µM | > 10 µM | > 10 µM | 0.251 µM | > 10 µM | > 10 µM | – | > 10 µM | > 3.84 µM | > 10 µM | > 10 µM | > 10 µM | > 10 µM | > 4.71 µM | > 10 µM |
| C1=NCCNCCNCCN=Cc2ccccc2OCc2cccc(n2)COc2ccccc21 | > 100 µM | > 100 µM | > 100 µM | > 100 µM | > 100 µM | > 100 µM | > 100 µM | > 100 µM | > 100 µM | > 100 µM | > 100 µM | > 100 µM | 84.4 µM | > 100 µM | 60.4 µM | – | > 100 µM | > 100 µM | 55.1 µM |
| CC(=O)O[C@H]1CCC2[C@@H]3CCC4Cc5nc6c(nc5C[C@]4(C)C3CC[C@@]21C)CC1CC[C@@H]2C(CC[C@@]3(C)C2CC[C@@H]3C(C)CCCC(C)C)[C@@]1(C)C6 (stereo partly drawn) | > 100 µM | > 100 µM | > 100 µM | > 100 µM | > 100 µM | > 100 µM | > 100 µM | > 100 µM | > 100 µM | > 100 µM | > 100 µM | – | > 100 µM | > 100 µM | > 100 µM | > 100 µM | > 100 µM | > 100 µM | > 100 µM |
| O=c1[nH]cnc2c1ncn2[C@@H]1C[C@H]1CO | > 100 µM | > 100 µM | > 100 µM | > 100 µM | > 100 µM | > 100 µM | > 100 µM | > 100 µM | > 100 µM | > 100 µM | – | > 100 µM | > 100 µM | > 100 µM | > 100 µM | > 100 µM | > 100 µM | > 100 µM | > 100 µM |
